Test results reported in PubChem BioAssay AID272 (DTP/NCI, 2004).
Values joined by “and” are separate entries in the source; they are usually repeats but may differ in a detail not shown here. Equal values may be shown once. Records with an inconclusive call do not appear.

Tested on: Lewis lung carcinoma i.m., BDF1 mice, T/C %
Assay: NCI In Vivo Anticancer Drug Screen. Data for tumor model Lewis Lung Carcinoma (intramuscular) in B6D2F1 (BDF1) mice
How it was run: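 Transplantable tumour model; readout survival or tumour size; value = treated (T) / vehicle control (C).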

[1] = endpoint: mean tumor weight (est.), dose: 0.25 mg/kg/injection, schedule: Q01DX011 (ip), vehicle: saline, higher = larger tumour
[2] = endpoint: mean tumor weight (est.), dose: 0.5 mg/kg/injection, schedule: Q01DX011 (ip), vehicle: saline, higher = larger tumour
[3] = endpoint: mean tumor weight (est.), dose: 1.0 mg/kg/injection, schedule: Q01DX011 (ip), vehicle: saline, higher = larger tumour
[4] = endpoint: median survival time, dose: 0.25 mg/kg/injection, schedule: Q01DX011 (ip), vehicle: saline, higher = longer survival
[5] = endpoint: median survival time, dose: 0.5 mg/kg/injection, schedule: Q01DX011 (ip), vehicle: saline, higher = longer survival
[6] = endpoint: median survival time, dose: 0.06 mg/kg/injection, schedule: Q01DX011 (ip), vehicle: saline, higher = longer survival
[7] = endpoint: median survival time, dose: 2.5 mg/kg/injection, schedule: Q01DX011 (ip), vehicle: saline with Tween-80, higher = longer survival
[8] = endpoint: median survival time, dose: 5.0 mg/kg/injection, schedule: Q01DX011 (ip), vehicle: saline with Tween-80, higher = longer survival
[9] = endpoint: median survival time, dose: 10.0 mg/kg/injection, schedule: Q01DX011 (ip), vehicle: saline with Tween-80, higher = longer survival

S=P(N1CC1)(N1CC1)N1CC1 was tested, and the T/C (endpoint: median survival time, dose: 1.5 mg/kg/injection, schedule: Q01DX011 (ip), vehicle: water, higher = longer survival) was 92 % of control, the T/C (endpoint: median survival time, dose: 3.0 mg/kg/injection, schedule: Q01DX011 (ip), vehicle: water, higher = longer survival) was 110 % of control and 119 % of control and the T/C (endpoint: median survival time, dose: 6.0 mg/kg/injection, schedule: Q01DX011 (ip), vehicle: water, higher = longer survival) was 86 % of control.
Nc1nc(Cl)nc2c1ncn2C1CC(O)C(CO)O1 (stereo not drawn) was tested, and the T/C (endpoint: median survival time, dose: 8.0 mg/kg/injection, schedule: Q01DX Z (ip), vehicle: other, higher = longer survival) was 93 % of control and 95 % of control, the T/C (endpoint: median survival time, dose: 16.0 mg/kg/injection, schedule: Q01DX Z (ip), vehicle: other, higher = longer survival) was 113 % of control and the T/C (endpoint: median survival time, dose: 32.0 mg/kg/injection, schedule: Q01DX Z (ip), vehicle: other, higher = longer survival) was 86 % of control.
With COc1cc(C(=O)OC2CC34CCNC35CC(OC5(OC)C2O)c2cc3c(cc24)OCO3)ccc1O (stereo not drawn) the T/C (endpoint: mean tumor weight, dose: 1.0 mg/kg/injection, schedule: Q01DX011 (ip), vehicle: carboxymethylcellulose (CMC), higher = larger tumour) was 81 % of control, the T/C (endpoint: mean tumor weight, dose: 2.0 mg/kg/injection, schedule: Q01DX011 (ip), vehicle: carboxymethylcellulose (CMC), higher = larger tumour) was 70 % of control and the T/C (endpoint: mean tumor weight, dose: 4.0 mg/kg/injection, schedule: Q01DX011 (ip), vehicle: carboxymethylcellulose (CMC), higher = larger tumour) was 49 % of control. The T/C (endpoint: median survival time, dose: 2.0 mg/kg/injection, schedule: Q01DX011 (ip), vehicle: carboxymethylcellulose (CMC), higher = longer survival) was 91 % of control and the T/C (endpoint: median survival time, dose: 4.0 mg/kg/injection, schedule: Q01DX011 (ip), vehicle: carboxymethylcellulose (CMC), higher = longer survival) was 86 % of control.
In the case of CCCCCCCCCCCC(c1ccccc1)[N+](C)(C)Cc1ccccc1 (stereo not drawn), the T/C [1] is reported as 80 % of control, the T/C [2] is reported as 70 % of control and the T/C [3] is reported as 61 % of control. The T/C [4] was 87 % of control, the T/C [5] was 91 % of control and the T/C (endpoint: median survival time, dose: 1.0 mg/kg/injection, schedule: Q01DX011 (ip), vehicle: saline, higher = longer survival) was 120 % of control.
In the case of CS(=O)(=O)OCCC(=O)N1CCN(C(=O)CCOS(C)(=O)=O)CC1, the T/C (endpoint: mean tumor weight, dose: 12.5 mg/kg/injection, schedule: Q01DX011 (ip), vehicle: saline, higher = larger tumour) is reported as 79 % of control, the T/C (endpoint: mean tumor weight, dose: 25.0 mg/kg/injection, schedule: Q01DX011 (ip), vehicle: saline, higher = larger tumour) is reported as 60 % of control and the T/C (endpoint: mean tumor weight, dose: 50.0 mg/kg/injection, schedule: Q01DX011 (ip), vehicle: saline, higher = larger tumour) is reported as 61 % of control. The T/C (endpoint: median survival time, dose: 12.5 mg/kg/injection, schedule: Q01DX011 (ip), vehicle: saline, higher = longer survival) was 104 % of control and the T/C (endpoint: median survival time, dose: 25.0 mg/kg/injection, schedule: Q01DX011 (ip), vehicle: saline, higher = longer survival) was 97 % of control.
CCCCCCCCCCCCCCCC(=O)N(C/C=C/CN(CCCN(C)C)C(=O)CCCCCCCCCCCCCCC)CCCN(C)C was tested, and the T/C (endpoint: mean tumor weight (est.), dose: 12.5 mg/kg/injection, schedule: Q01DX011 (ip), vehicle: saline with Tween-80, higher = larger tumour) was 44 % of control and the T/C (endpoint: median survival time, dose: 12.5 mg/kg/injection, schedule: Q01DX011 (ip), vehicle: saline with Tween-80, higher = longer survival) was 92 % of control.
In the case of COC1=C(N)C(=O)c2nc(-c3nc(C(=O)O)c(C)c(-c4ccc(OC)c(OC)c4O)c3N)ccc2C1=O, the T/C (endpoint: median survival time, dose: 0.02 mg/kg/injection, schedule: Q01DX011 (ip), vehicle: other, higher = longer survival) is reported as 105 % of control, the T/C (endpoint: median survival time, dose: 0.02 mg/kg/injection, schedule: Q01DX011 (ip), vehicle: saline, higher = longer survival) is reported as 92 % of control and the T/C (endpoint: median survival time, dose: 0.03 mg/kg/injection, schedule: Q01DX009 (ip), vehicle: saline, higher = longer survival) is reported as 86 % of control. For the same molecule, the T/C (endpoint: median survival time, dose: 0.03 mg/kg/injection, schedule: Q01DX011 (ip), vehicle: saline, higher = longer survival) was 96 % of control, the T/C (endpoint: median survival time, dose: 0.05 mg/kg/injection, schedule: Q01DX009 (ip), vehicle: saline, higher = longer survival) was 90 % of control and the T/C (endpoint: median survival time, dose: 0.05 mg/kg/injection, schedule: Q01DX011 (ip), vehicle: other, higher = longer survival) was 90 % of control. For the same molecule, the T/C [6] was 94 % of control, the T/C (endpoint: median survival time, dose: 0.1 mg/kg/injection, schedule: Q01DX011 (ip), vehicle: other, higher = longer survival) was 100 % of control and the T/C (endpoint: median tumor weight (est.), dose: 0.02 mg/kg/injection, schedule: Q01DX011 (ip), vehicle: saline, higher = larger tumour) was 72 % of control. The T/C (endpoint: median tumor weight (est.), dose: 0.03 mg/kg/injection, schedule: Q01DX011 (ip), vehicle: saline, higher = larger tumour) was 81 % of control, the T/C (endpoint: median tumor weight (est.), dose: 0.06 mg/kg/injection, schedule: Q01DX011 (ip), vehicle: saline, higher = larger tumour) was 77 % of control and the T/C (endpoint: median tumor weight (est.), dose: 0.12 mg/kg/injection, schedule: Q01DX011 (ip), vehicle: saline, higher = larger tumour) was 55 % of control.
With C/C(=C\COc1ccc2ccc(=O)oc2c1)C1=CC(=O)C(C)(C)O1 the T/C (endpoint: mean tumor weight, dose: 100.0 mg/kg/injection, schedule: Q01DX011 (ip), vehicle: saline, higher = larger tumour) was 55 % of control, the T/C (endpoint: mean tumor weight, dose: 200.0 mg/kg/injection, schedule: Q01DX011 (ip), vehicle: saline, higher = larger tumour) was 47 % of control and the T/C (endpoint: mean tumor weight, dose: 400.0 mg/kg/injection, schedule: Q01DX011 (ip), vehicle: saline, higher = larger tumour) was 62 % of control. The T/C (endpoint: median survival time, dose: 100.0 mg/kg/injection, schedule: Q01DX011 (ip), vehicle: saline, higher = longer survival) was 108 % of control, the T/C (endpoint: median survival time, dose: 200.0 mg/kg/injection, schedule: Q01DX011 (ip), vehicle: saline, higher = longer survival) was 100 % of control and the T/C (endpoint: median survival time, dose: 400.0 mg/kg/injection, schedule: Q01DX011 (ip), vehicle: saline, higher = longer survival) was 102 % of control.
In the case of Cc1n(CC(C)C)c2c([n+]1C)C(=O)c1ccccc1C2=O, the T/C (endpoint: mean tumor weight (est.), dose: 2.0 mg/kg/injection, schedule: Q01DX011 (ip), vehicle: saline with Tween-80, higher = larger tumour) is reported as 40 % of control and the T/C (endpoint: median survival time, dose: 2.0 mg/kg/injection, schedule: Q01DX011 (ip), vehicle: saline with Tween-80, higher = longer survival) is reported as 91 % of control.
With O=C(CBr)c1ccc(I)cc1 the T/C (endpoint: median survival time, dose: 1.25 mg/kg/injection, schedule: Q01DX011 (ip), vehicle: saline with Tween-80, higher = longer survival) was 102 % of control, the T/C [7] was 86 % of control and the T/C [8] was 89 % of control. The T/C [9] was 104 % of control.
With COc1ccc(C(=O)c2cc(OC)c(OC)c(OC)c2)cc1OC the T/C (endpoint: mean tumor weight (est.), dose: 100.0 mg/kg/injection, schedule: Q01DX011 (ip), vehicle: saline with Tween-80, higher = larger tumour) was 34 % of control, the T/C (endpoint: mean tumor weight (est.), dose: 200.0 mg/kg/injection, schedule: Q01DX011 (ip), vehicle: saline with Tween-80, higher = larger tumour) was 51 % of control and the T/C (endpoint: mean tumor weight (est.), dose: 400.0 mg/kg/injection, schedule: Q01DX011 (ip), vehicle: saline with Tween-80, higher = larger tumour) was 43 % of control. The T/C (endpoint: median survival time, dose: 100.0 mg/kg/injection, schedule: Q01DX011 (ip), vehicle: saline with Tween-80, higher = longer survival) was 93 % of control, the T/C (endpoint: median survival time, dose: 200.0 mg/kg/injection, schedule: Q01DX011 (ip), vehicle: saline with Tween-80, higher = longer survival) was 89 % of control and the T/C (endpoint: median survival time, dose: 400.0 mg/kg/injection, schedule: Q01DX011 (ip), vehicle: saline with Tween-80, higher = longer survival) was 108 % of control.
CN1C=c2c3c(ccc2=C2C=CC4C=C5OCOC5=CC4=C21)OCO3 (stereo not drawn) was tested, and the T/C (endpoint: mean tumor weight (est.), dose: 7.5 mg/kg/injection, schedule: Q01DX011 (ip), vehicle: saline with Tween-80, higher = larger tumour) was 78 % of control, the T/C (endpoint: mean tumor weight (est.), dose: 15.0 mg/kg/injection, schedule: Q01DX011 (ip), vehicle: saline with Tween-80, higher = larger tumour) was 51 % of control and the T/C (endpoint: median survival time, dose: 7.5 mg/kg/injection, schedule: Q01DX011 (ip), vehicle: saline with Tween-80, higher = longer survival) was 122 % of control. For the same molecule, the T/C (endpoint: median survival time, dose: 15.0 mg/kg/injection, schedule: Q01DX011 (ip), vehicle: saline with Tween-80, higher = longer survival) was 100 % of control.
C=CCN1/C(=C/C=C\c2sc3ccccc3[n+]2CC=C)Sc2ccccc21 was tested, and the T/C (endpoint: mean tumor weight (est.), dose: 0.07 mg/kg/injection, schedule: Q01DX011 (ip), vehicle: saline, higher = larger tumour) was 89 % of control, the T/C (endpoint: mean tumor weight (est.), dose: 0.13 mg/kg/injection, schedule: Q01DX011 (ip), vehicle: saline, higher = larger tumour) was 87 % of control and the T/C [1] was 117 % of control. For the same molecule, the T/C [2] was 93 % of control, the T/C [3] was 113 % of control and the T/C [6] was 93 % of control. For the same molecule, the T/C (endpoint: median survival time, dose: 0.13 mg/kg/injection, schedule: Q01DX011 (ip), vehicle: saline, higher = longer survival) was 86 % of control, the T/C [4] was 87 % of control and the T/C [5] was 89 % of control.
In the case of CC1([CH2][Hg][I])CS(=O)(=O)CC(C)([CH2][Hg][I])O1 (stereo not drawn), the T/C (endpoint: mean tumor weight (est.), dose: 2.5 mg/kg/injection, schedule: Q01DX011 (ip), vehicle: saline with Tween-80, higher = larger tumour) is reported as 82 % of control, the T/C (endpoint: mean tumor weight (est.), dose: 5.0 mg/kg/injection, schedule: Q01DX011 (ip), vehicle: saline with Tween-80, higher = larger tumour) is reported as 89 % of control and the T/C (endpoint: mean tumor weight (est.), dose: 10.0 mg/kg/injection, schedule: Q01DX011 (ip), vehicle: saline with Tween-80, higher = larger tumour) is reported as 49 % of control. The T/C (endpoint: mean tumor weight (est.), dose: 20.0 mg/kg/injection, schedule: Q01DX011 (ip), vehicle: saline with Tween-80, higher = larger tumour) was 47 % of control, the T/C [7] was 94 % of control and the T/C [8] was 98 % of control. The T/C [9] was 112 % of control and the T/C (endpoint: median survival time, dose: 20.0 mg/kg/injection, schedule: Q01DX011 (ip), vehicle: saline with Tween-80, higher = longer survival) was 100 % of control.
With CCCCCCCCCCCCCCCCCC[N+](C)(C)C (tested in a mixture with another compound) the T/C (endpoint: mean tumor weight, dose: 1.0 mg/kg/injection, schedule: Q01DX011 (ip), vehicle: saline, higher = larger tumour) was 59 % of control, the T/C (endpoint: mean tumor weight, dose: 2.0 mg/kg/injection, schedule: Q01DX011 (ip), vehicle: saline, higher = larger tumour) was 64 % of control and the T/C (endpoint: median survival time, dose: 2.0 mg/kg/injection, schedule: Q01DX011 (ip), vehicle: saline, higher = longer survival) was 88 % of control.
